Results reported in the NIST ThermoML archive (doi:10.1021/acs.jced.8b00814).

Details: 101.33 kPa, Liquid, Vibrating tube method

O [water]
Details	mass density [kg/m3]
283.15 K	999.66
308.15 K	994.11
313.15 K	992.32
318.15 K	990.34
323.15 K	988.18
328.15 K	985.87
333.15 K	983.4
338.15 K	980.78
343.15 K	978.02
348.15 K	975.13
353.15 K	972.11
358.15 K	968.95
363.15 K	965.71
